Where two headings read alike, the source gives them in different places.
Key:
Type in all cases: cell-based
[1] = target: Met (phospho-Met, HGF-stimulated PC-3 prostate cancer cells) (Homo sapiens (Human), UniProt P08581); experiment: Met autophosphorylation ELISA in PC-3 cells (Example F); details: cellular activity, read-out: c-Met IC50
Description: PC-3 prostate cancer cells (ATCC #CRL-1435) were seeded at 4×10^4 cells/well onto 24-well plates (Greiner #662165), in DMEM (Thermo Fisher #11995-040) containing 10% FBS (Thermo Fisher #26140-079), 1% MEM NEAA (Thermo Fisher #11140-050), 1% GlutaMax (Thermo Fisher #35050-061), and 1% Penicillin Streptomycin (Thermo Fisher #15140-122). PC-3 cells were incubated at 37° C., 5% CO2 for 24 h and then starved for 3 h in serum-free medium. Test compounds were serially diluted to produce an 8-point dose curve in fresh serum-free medium to a final concentration of 0.3% DMSO (vehicle) and added to the cells and incubated for 1 h. Cells were then stimulated with 100 ng/mL recombinant human HGF (R&D Systems #294-HG-250) for 10 min, washed with cold PBS, and immediately lysed with […] of cold 1× lysis buffer [20 mM Tris, 137 mM sodium chloride, 2 mM EDTA, 10% glycerol, 1% NP-40 alternative, 1 mM activated sodium orthovanadate, 1 mM PefaBloc SC (Sigma-Aldrich #11429868001), protease/phosphatase inhibitor tablet (Thermo Fisher #A32959)]. Lysates were clarified by centrifugation and 100 μL/well added into the PathScan phospho-Met (panTyr) Sandwich ELISA (Cell Signaling Technology #7333). Assay was performed according to manufacturer's instructions. Positive control wells (100% activity) contained HGF-stimulated, DMSO-treated cell lysates. Negative control wells (0% activity) contained HGF-stimulated, reference inhibitor-treated cell lysates. IC50 values were calculated by nonlinear regression analysis using a 4-parameter logistic curve fit in ActivityBase XE (IDBS).

[2] = target: KDR (phospho-KDR, VEGF165-stimulated HUVEC cells) (Homo sapiens (Human), UniProt P35968); experiment: KDR autophosphorylation ELISA in HUVEC cells (Example G); details: cellular activity
Description: Human umbilical vein endothelial cells or HUVEC (Lonza #C2519A) were seeded at 2×10^4 cells/well onto 96-well plates (Corning #3904), in EGM-2 growth medium (Lonza #CC-3162) containing 1% Penicillin Streptomycin (Thermo Fisher #15140-122). HUVEC cells were incubated at 37° C., 5% CO2 for 24 h and then starved for 24 h in serum-free EBM-2 basal medium (Lonza #CC-3156) containing 1% Penicillin Streptomycin. Test compounds were serially diluted to produce an 8-point dose curve in fresh serum-free medium to a final concentration of 0.3% DMSO (vehicle) and added to the cells and incubated for 1 h. Cells were then stimulated with 100 ng/mL recombinant human VEGF165 (R&D Systems #293-VE-500) for 5 min, washed with cold PBS, and immediately lysed with […] of cold 1× lysis buffer [20 mM Tris, 137 mM sodium chloride, 2 mM EDTA, 10% glycerol, 1% NP-40 alternative, 1 mM activated sodium orthovanadate, 1 mM PefaBloc SC (Sigma-Aldrich #11429868001), protease/phosphatase inhibitor tablet (Thermo Fisher #A32959)]. Lysates were collected and 100 μL/well added into the human phospho-KDR DuoSet IC ELISA (R&D Systems #DYC1766-2). Assay was performed according to manufacturer's instructions and sample phospho-KDR concentrations were extrapolated using human phospho-KDR control (R&D Systems #841421) as a standard. Positive control wells (100% activity) contained VEGF165-stimulated, DMSO-treated cell lysates. Negative control wells (0% activity) contained non-stimulated cell lysates. IC50 values were calculated by nonlinear regression analysis using a 4-parameter logistic curve fit in ActivityBase XE (IDBS).

[3] = target: Mer (phospho-Mer, MERTK-transfected 293A cells) (Homo sapiens (Human), UniProt Q12866); experiment: Mer autophosphorylation ELISA in transient transfected 293A cells (Example H); details: cellular activity
Description: 293A cells (Thermo Fisher #R70507) were seeded at 1.5×10^6 cells/well onto 100 mm dish (Greiner #664169), in DMEM (Thermo Fisher #11995-040) containing 10% FBS (Thermo Fisher #26140-079), 1% MEM NEAA (Thermo Fisher #11140-050), 1% GlutaMax (Thermo Fisher #35050-061), and 1% Penicillin Streptomycin (Thermo Fisher #15140-122). 293A cells were incubated at 37° C., 5% CO2 for 24 h and then transfected with […] MERTK DNA (Genecopoeia #EX-Z8208-M02) using TransIT LT1 transfection reagent (Mirus-Bio #MIR2305). After 24 h incubation, the transfected 293A cells were seeded at 1×10^5 cells/well onto 96-well plates (Corning #3904) in DMEM growth medium overnight. Test compounds were serially diluted to produce an 8-point dose curve in fresh serum-free medium to a final concentration of 0.3% DMSO (vehicle) and added to the cells and incubated for 1 h. Cells were then immediately lysed with 150 μL of cold 1× lysis buffer [20 mM Tris, 137 mM sodium chloride, 2 mM EDTA, 10% glycerol, 1% NP-40 alternative, 1 mM activated sodium orthovanadate, 1 mM PefaBloc SC (Sigma-Aldrich #11429868001), protease/phosphatase inhibitor tablet (Thermo Fisher #A32959)]. Lysates were clarified by centrifugation and 50 µL/well added in to the human phospho-Mer DuoSet IC ELISA (R&D Systems #DYC2579-2). Assay was performed according to manufacturer's instructions and sample phospho-Mer concentrations were extrapolated using human phospho-Mer control (R&D Systems #841793) as a standard. Positive control wells (100% activity) contained DMSO-treated cell lysates. Negative control wells (0% activity) contained reference inhibitor-treated cell lysates. IC50 values were calculated by nonlinear regression analysis using a 4-parameter logistic curve fit in ActivityBase XE (JDBS).

[4] = Met autophosphorylation ELISA in PC-3 cells
[5] = KDR autophosphorylation ELISA in HUVEC cells
[6] = Mer autophosphorylation ELISA in transient transfected 293A cells

Sequence of Mer (phospho-Mer, MERTK-transfected 293A cells) (Q12866 21-999): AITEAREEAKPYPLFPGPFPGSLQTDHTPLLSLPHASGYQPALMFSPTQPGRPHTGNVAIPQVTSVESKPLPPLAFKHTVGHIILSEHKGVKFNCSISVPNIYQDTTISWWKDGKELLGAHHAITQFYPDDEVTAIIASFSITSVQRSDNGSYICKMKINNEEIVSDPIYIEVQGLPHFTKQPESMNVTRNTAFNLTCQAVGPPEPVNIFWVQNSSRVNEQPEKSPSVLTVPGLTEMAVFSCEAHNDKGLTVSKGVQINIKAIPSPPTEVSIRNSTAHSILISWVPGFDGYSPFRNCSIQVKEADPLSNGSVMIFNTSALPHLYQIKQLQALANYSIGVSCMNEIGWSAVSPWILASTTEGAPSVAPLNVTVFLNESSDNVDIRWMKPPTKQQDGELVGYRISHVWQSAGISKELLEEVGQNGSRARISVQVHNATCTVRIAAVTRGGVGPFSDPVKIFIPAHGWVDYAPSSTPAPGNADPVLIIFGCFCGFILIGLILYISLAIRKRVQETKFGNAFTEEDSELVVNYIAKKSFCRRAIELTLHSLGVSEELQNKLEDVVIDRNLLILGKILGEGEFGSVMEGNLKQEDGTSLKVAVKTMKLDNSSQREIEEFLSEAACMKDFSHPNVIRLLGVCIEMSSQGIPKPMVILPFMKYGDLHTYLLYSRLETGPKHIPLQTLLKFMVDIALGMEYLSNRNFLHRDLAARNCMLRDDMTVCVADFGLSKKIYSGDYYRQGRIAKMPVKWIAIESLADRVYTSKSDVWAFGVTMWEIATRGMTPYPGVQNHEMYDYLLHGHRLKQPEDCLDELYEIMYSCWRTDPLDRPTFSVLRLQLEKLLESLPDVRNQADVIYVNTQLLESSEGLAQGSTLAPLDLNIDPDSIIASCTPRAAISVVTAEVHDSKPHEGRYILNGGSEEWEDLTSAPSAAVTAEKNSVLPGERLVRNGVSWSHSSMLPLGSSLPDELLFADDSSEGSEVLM
Sequence of KDR (phospho-KDR, VEGF165-stimulated HUVEC cells) (P35968 20-1356): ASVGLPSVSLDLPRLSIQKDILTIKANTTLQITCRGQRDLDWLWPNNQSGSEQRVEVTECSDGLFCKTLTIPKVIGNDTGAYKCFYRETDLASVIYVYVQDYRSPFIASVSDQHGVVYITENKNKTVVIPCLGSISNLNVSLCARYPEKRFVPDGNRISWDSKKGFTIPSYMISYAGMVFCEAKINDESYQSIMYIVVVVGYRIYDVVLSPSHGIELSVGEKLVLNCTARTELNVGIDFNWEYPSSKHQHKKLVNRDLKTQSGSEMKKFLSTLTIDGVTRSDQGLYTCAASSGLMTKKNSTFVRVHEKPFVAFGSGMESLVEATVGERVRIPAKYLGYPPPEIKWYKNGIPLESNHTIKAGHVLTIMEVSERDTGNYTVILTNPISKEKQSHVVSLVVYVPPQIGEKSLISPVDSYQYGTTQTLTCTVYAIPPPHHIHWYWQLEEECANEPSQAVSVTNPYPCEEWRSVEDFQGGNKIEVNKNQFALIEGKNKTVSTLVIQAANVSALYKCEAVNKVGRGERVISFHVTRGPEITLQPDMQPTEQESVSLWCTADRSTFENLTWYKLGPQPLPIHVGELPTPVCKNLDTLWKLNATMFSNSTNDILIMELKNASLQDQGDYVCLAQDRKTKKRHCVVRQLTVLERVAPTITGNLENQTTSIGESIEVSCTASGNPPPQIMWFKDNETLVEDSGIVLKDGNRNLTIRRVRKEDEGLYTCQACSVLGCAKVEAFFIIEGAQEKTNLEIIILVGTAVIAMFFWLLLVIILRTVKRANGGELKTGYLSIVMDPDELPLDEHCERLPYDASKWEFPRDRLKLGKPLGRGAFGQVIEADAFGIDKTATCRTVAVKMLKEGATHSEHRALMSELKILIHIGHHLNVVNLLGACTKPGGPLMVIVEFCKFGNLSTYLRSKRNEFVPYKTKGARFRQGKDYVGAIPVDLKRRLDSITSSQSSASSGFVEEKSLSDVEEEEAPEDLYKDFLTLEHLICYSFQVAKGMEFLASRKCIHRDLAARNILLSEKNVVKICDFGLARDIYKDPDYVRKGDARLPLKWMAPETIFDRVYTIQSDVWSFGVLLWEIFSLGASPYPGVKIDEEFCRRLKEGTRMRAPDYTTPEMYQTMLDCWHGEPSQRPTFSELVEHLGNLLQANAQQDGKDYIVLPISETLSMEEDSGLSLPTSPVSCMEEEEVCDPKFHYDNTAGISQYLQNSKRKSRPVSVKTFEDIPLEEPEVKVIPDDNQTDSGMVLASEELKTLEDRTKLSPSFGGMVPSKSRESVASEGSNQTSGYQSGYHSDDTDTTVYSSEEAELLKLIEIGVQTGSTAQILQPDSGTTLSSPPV
Sequence of Met (phospho-Met, HGF-stimulated PC-3 prostate cancer cells) (P08581 25-1390): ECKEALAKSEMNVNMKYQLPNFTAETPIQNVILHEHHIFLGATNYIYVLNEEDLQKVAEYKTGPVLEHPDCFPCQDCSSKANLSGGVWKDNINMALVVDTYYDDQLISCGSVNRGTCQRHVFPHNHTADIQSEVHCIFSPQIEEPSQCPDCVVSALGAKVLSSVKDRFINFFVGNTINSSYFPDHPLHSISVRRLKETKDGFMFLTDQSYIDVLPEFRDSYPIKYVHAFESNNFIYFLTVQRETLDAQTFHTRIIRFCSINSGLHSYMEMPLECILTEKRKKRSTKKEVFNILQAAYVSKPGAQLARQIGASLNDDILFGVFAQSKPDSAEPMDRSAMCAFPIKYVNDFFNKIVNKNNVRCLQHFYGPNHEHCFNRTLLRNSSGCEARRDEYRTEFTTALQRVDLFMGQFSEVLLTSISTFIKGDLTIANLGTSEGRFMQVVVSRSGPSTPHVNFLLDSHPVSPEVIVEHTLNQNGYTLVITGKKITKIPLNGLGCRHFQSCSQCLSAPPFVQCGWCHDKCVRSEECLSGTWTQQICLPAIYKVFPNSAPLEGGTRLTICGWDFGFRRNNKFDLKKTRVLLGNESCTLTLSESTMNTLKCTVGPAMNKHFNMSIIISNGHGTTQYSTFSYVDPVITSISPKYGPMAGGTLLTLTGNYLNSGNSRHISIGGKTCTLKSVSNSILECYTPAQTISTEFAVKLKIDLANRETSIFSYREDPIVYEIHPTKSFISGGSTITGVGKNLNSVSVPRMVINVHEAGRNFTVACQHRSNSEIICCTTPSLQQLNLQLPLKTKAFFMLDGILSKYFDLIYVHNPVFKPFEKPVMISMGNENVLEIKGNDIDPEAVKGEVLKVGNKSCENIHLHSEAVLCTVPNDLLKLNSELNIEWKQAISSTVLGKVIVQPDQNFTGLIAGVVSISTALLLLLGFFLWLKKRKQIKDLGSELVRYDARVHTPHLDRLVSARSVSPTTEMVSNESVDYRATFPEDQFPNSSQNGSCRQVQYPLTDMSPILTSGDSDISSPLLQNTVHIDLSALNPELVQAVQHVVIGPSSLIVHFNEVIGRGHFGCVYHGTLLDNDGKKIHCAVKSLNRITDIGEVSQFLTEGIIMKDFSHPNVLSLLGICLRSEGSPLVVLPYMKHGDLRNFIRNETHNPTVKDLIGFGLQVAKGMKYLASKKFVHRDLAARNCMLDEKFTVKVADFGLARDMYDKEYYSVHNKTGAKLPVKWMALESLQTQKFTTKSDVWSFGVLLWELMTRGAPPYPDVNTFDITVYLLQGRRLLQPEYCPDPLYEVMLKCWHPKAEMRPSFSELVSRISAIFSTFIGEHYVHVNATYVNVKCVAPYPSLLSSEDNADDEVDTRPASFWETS

Row | IC50 ([1]; PC-3 cells) [nM] | IC50 ([2]; HUVEC cells) [nM] | IC50 ([3]; transfected 293A cells) [nM] | IC50 [1, 4] [nM] | IC50 [2, 5] [nM] | IC50 [3, 6] [nM] | Structure (SMILES)
1 | < 100 | > 300 | < 100 |  |  |  | COc1cnc2c(Oc3ccc(NC(=O)c4c(C)n(C)c(C)c(-c5ccc(F)c(F)c5)c4=O)cc3F)ccnc2c1 [Compound 820, 5-(3,4-difluorophenyl)-N-[3-fluoro-4-[(7-methoxy-1,5-naphthyridin-4-yl)oxy]phenyl]-1,2,6-trimethyl-4-oxopyridine-3-carboxamide]
2 |  |  |  | < 100 | < 100 | < 100 | COc1cc2nccc(Oc3ccc(NC(=O)c4c(C)nc(C)c(-c5ccc(C(C)C)cc5)c4O)cc3F)c2nc1OC [Compound 711, N-[4-[(6,7-dimethoxy-1,5-naphthyridin-4-yl)oxy]-3-fluorophenyl]-4-hydroxy-2,6-dimethyl-5-(4-propan-2-ylphenyl)pyridine-3-carboxamide]
3 |  |  |  | < 100 | > 300 | < 100 | COc1cc2nccc(Oc3ccc(NC(=O)c4cc(C(C)O)c(C)n(-c5ccc(F)cc5)c4=O)cc3F)c2nc1OC (stereo not drawn) [Compound 787, N-[4-[(6,7-dimethoxy-1,5-naphthyridin-4-yl)oxy]-3-fluorophenyl]-1-(4-fluorophenyl)-5-(1-hydroxyethyl)-6-methyl-2-oxopyridine-3-carboxamide]
4 |  |  |  | < 100 | > 300 | < 100 | COc1cc2nccc(Oc3ccc(NC(=O)c4c(C)n(CC(F)(F)F)cc(-c5ccc(F)cc5)c4=O)cc3)c2nc1OC [Compound 789, N-[4-[(6,7-dimethoxy-1,5-naphthyridin-4-yl)oxy]phenyl]-5-(4-fluorophenyl)-2-methyl-4-oxo-1-(2,2,2-trifluoroethyl)pyridine-3-carboxamide]
5 | < 100 | > 300 | < 100 |  |  |  | COc1cnc2c(Oc3ccc(NC(=O)c4c(C)n(C)c(C)c(-c5ccc(F)cc5F)c4=O)cc3F)ccnc2c1 [Compound 824, 5-(2,4-difluorophenyl)-N-[3-fluoro-4-[(7-methoxy-1,5-naphthyridin-4-yl)oxy]phenyl]-1,2,6-trimethyl-4-oxopyridine-3-carboxamide]
6 | < 100 | > 300 | < 100 |  |  |  | COc1cc2nccc(Oc3ccc(NC(=O)c4c(C)n(C)c(C)c(-c5ccc(F)c(F)c5)c4=O)cc3F)c2nc1OC [Compound 822, 5-(3,4-difluorophenyl)-N-[4-[(6,7-dimethoxy-1,5-naphthyridin-4-yl)oxy]-3-fluorophenyl]-1,2,6-trimethyl-4-oxopyridine-3-carboxamide]
7 |  |  |  | < 100 | < 100 | < 100 | COc1cnc2c(Oc3cc(F)c(NC(=O)c4c(C)nc(C)c(-c5ccc(F)cc5F)c4O)cc3F)ccnc2c1 [Compound 779, N-[2,5-difluoro-4-[(7-methoxy-1,5-naphthyridin-4-yl)oxy]phenyl]-5-(2,4-difluorophenyl)-4-hydroxy-2,6-dimethylpyridine-3-carboxamide]
8 | < 100 | > 300 | < 100 |  |  |  | COc1cnc2c(Oc3ccc(NC(=O)c4c(C)n(C)c(C)c(-c5ccc(F)c(C)c5)c4=O)cc3F)ccnc2c1 [Compound 819, N-[3-fluoro-4-[(7-methoxy-1,5-naphthyridin-4-yl)oxy]phenyl]-5-(4-fluoro-3-methylphenyl)-1,2,6-trimethyl-4-oxopyridine-3-carboxamide]
9 |  |  |  | < 100 | > 300 | < 100 | CCOc1ccn(-c2ccc(F)cc2)c(=O)c1C(=O)Nc1ccc(Oc2ccnc3nc(OC)c(OCCOC)cc23)c(F)c1 [Compound 761, 4-ethoxy-N-[3-fluoro-4-[[7-methoxy-6-(2-methoxyethoxy)-1,8-naphthyridin-4-yl]oxy]phenyl]-1-(4-fluorophenyl)-2-oxopyridine-3-carboxamide]
10 |  |  |  | < 100 | < 100 | < 100 | COc1cc2nccc(Oc3ccc(NC(=O)c4c5n(c(C)c(-c6ccc(F)cc6)c4=O)CCOC5)cc3F)c2nc1OC [Compound 775, N-[4-[(6,7-dimethoxy-1,5-naphthyridin-4-yl)oxy]-3-fluorophenyl]-7-(4-fluorophenyl)-6-methyl-8-oxo-3,4-dihydro-1H-pyrido[2,1-c][1,4]oxazine-9-carboxamide]
11 |  |  |  | < 100 | > 300 | < 100 | COc1cnc2c(Oc3ccc(NC(=O)c4cnc(C)c(-c5ccc(C(C)C)cc5)c4O)cc3F)ccnc2c1 [Compound 705, N-[3-fluoro-4-[(7-methoxy-1,5-naphthyridin-4-yl)oxy]phenyl]-4-hydroxy-6-methyl-5-(4-propan-2-ylphenyl)pyridine-3-carboxamide]
12 | < 100 | > 300 | < 100 |  |  |  | COc1cnc2c(Oc3ccc(NC(=O)c4c(C)n(C)c(C)c(-c5ccc(F)cc5OC)c4=O)cc3F)ccnc2c1 [Compound 818, N-[3-fluoro-4-[(7-methoxy-1,5-naphthyridin-4-yl)oxy]phenyl]-5-(4-fluoro-2-methoxyphenyl)-1,2,6-trimethyl-4-oxopyridine-3-carboxamide]
13 |  |  |  | < 100 | < 100 | < 100 | COc1cc2nccc(Oc3ccc(NC(=O)c4c(C)n(CC(F)F)cc(-c5ccc(F)cc5C)c4=O)cc3F)c2nc1OC [Compound 786, 1-(2,2-difluoroethyl)-N-[4-[(6,7-dimethoxy-1,5-naphthyridin-4-yl)oxy]-3-fluorophenyl]-5-(4-fluoro-2-methylphenyl)-2-methyl-4-oxopyridine-3-carboxamide]
14 |  |  |  | < 100 | > 300 | < 100 | CCOc1ccn(-c2ccc(F)cc2)c(=O)c1C(=O)Nc1ccc(Oc2ccnc3cc(OC)cnc23)c(F)c1 [Compound 716, 4-ethoxy-N-[3-fluoro-4-[(7-methoxy-1,5-naphthyridin-4-yl)oxy]phenyl]-1-(4-fluorophenyl)-2-oxopyridine-3-carboxamide]
15 |  |  |  | < 100 | > 300 | < 100 | COc1cnc2c(Oc3ccc(NC(=O)c4c(C)n(CC(F)(F)F)cc(-c5ccc(F)cc5)c4=O)cc3F)ccnc2c1 [Compound 790, N-[3-fluoro-4-[(7-methoxy-1,5-naphthyridin-4-yl)oxy]phenyl]-5-(4-fluorophenyl)-2-methyl-4-oxo-1-(2,2,2-trifluoroethyl)pyridine-3-carboxamide]

From US12371428B2 (Exelixis, Inc., priority 2019, dated 2025)
